# Experimental data taken from ChEMBL document CHEMBL5634115, “Exploring novel anticancer pyrazole benzenesulfonamides featuring tail approach strategy as carbonic anhydrase inhibitors” (Eur J Med Chem, 2023).
# Tests used:
# [1] = system: RPMI-8226; test: cells; assay type: functional; details: Homo sapiens, time 48 hrs
# Description: Growth inhibition of human RPMI-8226 cells measured after 48 hrs by sulforhodamine B assay
# [2] = system: EKVX; test: cells; assay type: functional; details: Homo sapiens, time 48 hrs
# Description: Growth inhibition of human EKVX cells measured after 48 hrs by sulforhodamine B assay
# [3] = system: HOP-92; test: cells; assay type: functional; details: Homo sapiens, time 48 hrs
# Description: Growth inhibition of human HOP-92 cells measured after 48 hrs by sulforhodamine B assay
# [4] = system: NCI-H460; test: cells; assay type: functional; details: Homo sapiens, time 48 hrs
# Description: Growth inhibition of human NCI-H460 cells measured after 48 hrs by sulforhodamine B assay
# [5] = system: NCI-H522; test: cells; assay type: functional; details: Homo sapiens, time 48 hrs
# Description: Growth inhibition of human NCI-H522 cells measured after 48 hrs by sulforhodamine B assay
# [6] = system: HCC 2998; test: cells; assay type: functional; details: Homo sapiens, time 48 hrs
# Description: Growth inhibition of human HCC 2998 cells measured after 48 hrs by sulforhodamine B assay
# [7] = system: HCT-116; test: cells; assay type: functional; details: Homo sapiens, time 48 hrs
# Description: Growth inhibition of human HCT-116 cells measured after 48 hrs by sulforhodamine B assay
# [8] = system: SF-295; test: cells; assay type: functional; details: Homo sapiens, time 48 hrs
# Description: Growth inhibition of human SF-295 cells measured after 48 hrs by sulforhodamine B assay
# [9] = system: SF-539; test: cells; assay type: functional; details: Homo sapiens, time 48 hrs
# Description: Growth inhibition of human SF-539 cells measured after 48 hrs by sulforhodamine B assay
# [10] = system: Malme-3M; test: cells; assay type: functional; details: Homo sapiens, time 48 hrs
# [11] = system: SK-MEL-28; test: cells; assay type: functional; details: Homo sapiens, time 48 hrs
# Description: Growth inhibition of human SK-MEL-28 cells measured after 48 hrs by sulforhodamine B assay
# [12] = system: SK-MEL-5; test: cells; assay type: functional; details: Homo sapiens, time 48 hrs
# Description: Growth inhibition of human SK-MEL-5 cells measured after 48 hrs by sulforhodamine B assay
# [13] = system: UACC-62; test: cells; assay type: functional; details: Homo sapiens, time 48 hrs
# Description: Growth inhibition of human UACC-62 cells measured after 48 hrs by sulforhodamine B assay
# [14] = system: OVCAR-5; test: cells; assay type: functional; details: Homo sapiens, time 48 hrs
# Description: Growth inhibition of human OVCAR-5 cells measured after 48 hrs by sulforhodamine B assay
# [15] = system: NCI/ADR-RES; test: cells; assay type: functional; details: Homo sapiens, time 48 hrs
# Description: Growth inhibition of human NCI/ADR-RES cells measured after 48 hrs by sulforhodamine B assay
# [16] = system: SK-OV-3; test: cells; assay type: functional; details: Homo sapiens, time 48 hrs
# Description: Growth inhibition of human SK-OV-3 cells measured after 48 hrs by sulforhodamine B assay
# [17] = system: A498; test: cells; assay type: functional; details: Homo sapiens, time 48 hrs
# Description: Growth inhibition of human A498 cells measured after 48 hrs by sulforhodamine B assay
# [18] = system: RXF 393; test: cells; assay type: functional; details: Homo sapiens, time 48 hrs
# Description: Growth inhibition of human RXF 393 cells measured after 48 hrs by sulforhodamine B assay
# [19] = system: SN12C; test: cells; assay type: functional; details: Homo sapiens, time 48 hrs
# Description: Growth inhibition of human SN12C cells measured after 48 hrs by sulforhodamine B assay
# [20] = system: UO-31; test: cells; assay type: functional; details: Homo sapiens, time 48 hrs
# Description: Growth inhibition of human UO-31 cells measured after 48 hrs by sulforhodamine B assay
# [21] = system: MCF7; test: cells; assay type: functional; details: Homo sapiens, time 48 hrs
# Description: Growth inhibition of human MCF7 cells measured after 48 hrs by sulforhodamine B assay
# [22] = system: Hs-578T; test: cells; assay type: functional; details: Homo sapiens, time 48 hrs
# Description: Growth inhibition of human Hs-578T cells measured after 48 hrs by sulforhodamine B assay
# [23] = system: EKVX; test: cells; assay type: functional; details: Homo sapiens, time 48 hrs; remark: listed apart in the source
# Description: Cytostatic activity against human EKVX cells assessed as total growth inhibition measured after 48 hrs by sulforhodamine B assay
# [24] = system: SW-620; test: cells; assay type: functional; details: Homo sapiens, time 48 hrs
# Description: Cytostatic activity against human SW620 cells assessed as total growth inhibition measured after 48 hrs by sulforhodamine B assay
# [25] = system: SF-539; test: cells; assay type: functional; details: Homo sapiens, time 48 hrs; remark: listed apart in the source
# Description: Cytostatic activity against human SF-539 cells assessed as total growth inhibition measured after 48 hrs by sulforhodamine B assay
# [26] = system: SNB-19; test: cells; assay type: functional; details: Homo sapiens, time 48 hrs
# Description: Cytostatic activity against human SNB-19 cells assessed as total growth inhibition measured after 48 hrs by sulforhodamine B assay
# [27] = system: LOX IMVI; test: cells; assay type: functional; details: Homo sapiens, time 48 hrs
# Description: Cytostatic activity against human LOX IMVI cells assessed as total growth inhibition measured after 48 hrs by sulforhodamine B assay
# [28] = system: MDA-MB-435; test: cells; assay type: functional; details: Homo sapiens, time 48 hrs
# Description: Cytostatic activity against human MDA-MB-435 cells assessed as total growth inhibition measured after 48 hrs by sulforhodamine B assay
# [29] = system: UACC-257; test: cells; assay type: functional; details: Homo sapiens, time 48 hrs
# Description: Cytostatic activity against human UACC-257 cells assessed as total growth inhibition measured after 48 hrs by sulforhodamine B assay
# [30] = system: UACC-62; test: cells; assay type: functional; details: Homo sapiens, time 48 hrs; remark: listed apart in the source
# Description: Cytostatic activity against human UACC-62 cells assessed as total growth inhibition measured after 48 hrs by sulforhodamine B assay
# [31] = system: OVCAR-5; test: cells; assay type: functional; details: Homo sapiens, time 48 hrs; remark: listed apart in the source
# Description: Cytostatic activity against human OVCAR-5 cells assessed as total growth inhibition measured after 48 hrs by sulforhodamine B assay
# [32] = system: NCI/ADR-RES; test: cells; assay type: functional; details: Homo sapiens, time 48 hrs; remark: listed apart in the source
# Description: Cytostatic activity against human NCI/ADR-RES cells assessed as total growth inhibition measured after 48 hrs by sulforhodamine B assay
# [33] = system: 786-0; test: cells; assay type: functional; details: Homo sapiens, time 48 hrs
# Description: Cytostatic activity against human 786-0 cells assessed as total growth inhibition measured after 48 hrs by sulforhodamine B assay
# [34] = system: CAKI-1; test: cells; assay type: functional; details: Homo sapiens, time 48 hrs
# Description: Cytostatic activity against human CAKI-1 cells assessed as total growth inhibition measured after 48 hrs by sulforhodamine B assay
# [35] = system: SN12C; test: cells; assay type: functional; details: Homo sapiens, time 48 hrs; remark: listed apart in the source
# Description: Cytostatic activity against human SN12C cells assessed as total growth inhibition measured after 48 hrs by sulforhodamine B assay
# [36] = system: UO-31; test: cells; assay type: functional; details: Homo sapiens, time 48 hrs; remark: listed apart in the source
# Description: Cytostatic activity against human UO-31 cells assessed as total growth inhibition measured after 48 hrs by sulforhodamine B assay
# [37] = system: MDA-MB-231; test: cells; assay type: functional; details: Homo sapiens, time 48 hrs
# Description: Cytostatic activity against human MDA-MB-231 cells assessed as total growth inhibition measured after 48 hrs by sulforhodamine B assay
# [38] = system: Hs-578T; test: cells; assay type: functional; details: Homo sapiens, time 48 hrs; remark: listed apart in the source
# Description: Cytostatic activity against human Hs-578T cells assessed as total growth inhibition measured after 48 hrs by sulforhodamine B assay
# [39] = target: Carbonic anhydrase 12 (Homo sapiens, UniProt O43570)
# Sequence of Carbonic anhydrase 12 (O43570 whole entry): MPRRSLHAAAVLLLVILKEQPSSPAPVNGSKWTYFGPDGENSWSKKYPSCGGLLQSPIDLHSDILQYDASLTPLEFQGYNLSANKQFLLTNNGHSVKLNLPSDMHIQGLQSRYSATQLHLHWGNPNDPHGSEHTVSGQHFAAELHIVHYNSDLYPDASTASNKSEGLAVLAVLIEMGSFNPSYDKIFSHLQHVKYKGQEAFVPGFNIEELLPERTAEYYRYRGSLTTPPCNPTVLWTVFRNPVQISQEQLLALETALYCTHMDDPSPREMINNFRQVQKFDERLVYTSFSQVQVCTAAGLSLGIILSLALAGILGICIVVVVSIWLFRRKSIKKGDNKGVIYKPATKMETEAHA
# Description: Inhibition of human carbonic anhydrase 12 preincubated for 15 mins followed by substrate addition and measured after 30 mins by spectrophotometric method
# [40] = system: A549; test: cells; details: Homo sapiens, A549, 48 h, read-out: LC50
# Description: Cytotoxicity activity against human A549 cells assessed as reduction in cell growth measured after 48 hrs by sulforhodamine B assay
# [41] = system: EKVX; test: cells; details: Homo sapiens, 48 h, read-out: LC50
# Description: Cytotoxicity activity against human EKVX cells assessed as reduction in cell growth measured after 48 hrs by sulforhodamine B assay
# [42] = system: NCI-H322M; test: cells; details: Homo sapiens, 48 h, read-out: LC50
# Description: Cytotoxicity activity against human NCI-H322M cells assessed as reduction in cell growth measured after 48 hrs by sulforhodamine B assay
# [43] = system: NCI-H460; test: cells; details: Homo sapiens, NCI-H460, 48 h, read-out: LC50
# Description: Cytotoxicity activity against human NCI-H460 cells assessed as reduction in cell growth measured after 48 hrs by sulforhodamine B assay
# [44] = system: HCC 2998; test: cells; details: Homo sapiens, HCC 2998, 48 h, read-out: LC50
# Description: Cytotoxicity activity against human HCC 2998 cells assessed as reduction in cell growth measured after 48 hrs by sulforhodamine B assay
# [45] = system: HT-29; test: cells; details: Homo sapiens, HT-29, 48 h, read-out: LC50
# Description: Cytotoxicity activity against human HT-29 cells assessed as reduction in cell growth measured after 48 hrs by sulforhodamine B assay
# [46] = system: SF-268; test: cells; details: Homo sapiens, SF-268, 48 h, read-out: LC50
# Description: Cytotoxicity activity against human SF-268 cells assessed as reduction in cell growth measured after 48 hrs by sulforhodamine B assay
# [47] = system: SNB-75; test: cells; details: Homo sapiens, SNB-75, 48 h, read-out: LC50
# Description: Cytotoxicity activity against human SNB-75 cells assessed as reduction in cell growth measured after 48 hrs by sulforhodamine B assay
# [48] = system: Malme-3M; test: cells; details: Homo sapiens, 48 h, read-out: LC50
# Description: Cytotoxicity activity against human Malme-3M cells assessed as reduction in cell growth measured after 48 hrs by sulforhodamine B assay
# [49] = system: MDA-MB-435; test: cells; details: Homo sapiens, MDA-MB-435, 48 h, read-out: LC50
# Description: Cytotoxicity activity against human MDA-MB-435 cells assessed as reduction in cell growth measured after 48 hrs by sulforhodamine B assay
# [50] = system: UACC-62; test: cells; details: Homo sapiens, UACC-62, 48 h, read-out: LC50
# Description: Cytotoxicity activity against human UACC-62 cells assessed as reduction in cell growth measured after 48 hrs by sulforhodamine B assay
# [51] = system: IGROV-1; test: cells; details: Homo sapiens, IGROV-1, 48 h, read-out: LC50
# Description: Cytotoxicity activity against human IGROV-1 cells assessed as reduction in cell growth measured after 48 hrs by sulforhodamine B assay
# [52] = system: OVCAR-8; test: cells; details: Homo sapiens, OVCAR-8, 48 h, read-out: LC50
# Description: Cytotoxicity activity against human OVCAR-8 cells assessed as reduction in cell growth measured after 48 hrs by sulforhodamine B assay
# [53] = system: SK-OV-3; test: cells; details: Homo sapiens, SK-OV-3, 48 h, read-out: LC50
# Description: Cytotoxicity activity against human SK-OV-3 cells assessed as reduction in cell growth measured after 48 hrs by sulforhodamine B assay
# [54] = system: CAKI-1; test: cells; details: Homo sapiens, CAKI-1, 48 h, read-out: LC50
# Description: Cytotoxicity activity against human CAKI-1 cells assessed as reduction in cell growth measured after 48 hrs by sulforhodamine B assay
# [55] = system: TK-10; test: cells; details: Homo sapiens, TK-10, 48 h, read-out: LC50
# Description: Cytotoxicity activity against human TK-10 cells assessed as reduction in cell growth measured after 48 hrs by sulforhodamine B assay
# [56] = system: PC-3; test: cells; details: Homo sapiens, PC-3, 48 h, read-out: LC50
# Description: Cytotoxicity activity against human PC-3 cells assessed as reduction in cell growth measured after 48 hrs by sulforhodamine B assay
# [57] = system: DU-145; test: cells; details: Homo sapiens, DU-145, 48 h, read-out: LC50
# Description: Cytotoxicity activity against human DU-145 cells assessed as reduction in cell growth measured after 48 hrs by sulforhodamine B assay
# [58] = system: MCF7; test: cells; details: Homo sapiens, MCF7, 48 h, read-out: LC50
# Description: Cytotoxicity activity against human MCF7 cells assessed as reduction in cell growth measured after 48 hrs by sulforhodamine B assay
# [59] = system: Hs-578T; test: cells; details: Homo sapiens, 48 h, read-out: LC50
# Description: Cytotoxicity activity against human Hs-578T cells assessed as reduction in cell growth measured after 48 hrs by sulforhodamine B assay
# [60] = system: T47D; test: cells; details: Homo sapiens, 48 h, read-out: LC50
# Description: Cytotoxicity activity against human T47D cells assessed as reduction in cell growth measured after 48 hrs by sulforhodamine B assay
# [61] = system: MDA-MB-468; test: cells; details: Homo sapiens, MDA-MB-468, 48 h, read-out: LC50
# Description: Cytotoxicity activity against human MDA-MB-468 cells assessed as reduction in cell growth measured after 48 hrs by sulforhodamine B assay
structure (smiles),measurement,setting,value
CCOC(=O)c1ccc(N/N=C/c2cn(-c3ccc(S(N)(=O)=O)cc3)nc2-c2ccc(C)cc2)cc1,GI50,[1],3.24 µM
same,GI50,[2],3.17 µM
same,GI50,[3],2.79 µM
same,GI50,[4],2.43 µM
same,GI50,[5],2.07 µM
same,GI50,[6],2.05 µM
same,GI50,[7],3.11 µM
same,GI50,[8],6.92 µM
same,GI50,[9],2.55 µM
same,GI50,[10],7.32 µM
same,GI50,[11],4.5 µM
same,GI50,[12],2.99 µM
same,GI50,[13],5.66 µM
same,GI50,[14],4.29 µM
same,GI50,[15],2.94 µM
same,GI50,[16],24.4 µM
same,GI50,[17],7.62 µM
same,GI50,[18],1.97 µM
same,GI50,[19],16 µM
same,GI50,[20],2.71 µM
same,GI50,[21],2.44 µM
same,GI50,[22],2.76 µM
same,TGI,[23],3.17 µM
same,TGI,[24],15.6 µM
same,TGI,[25],8.03 µM
same,TGI,[26],28.1 µM
same,TGI,[27],3.15 µM
same,TGI,[28],8.96 µM
same,TGI,[29],37 µM
same,TGI,[30],21.5 µM
same,TGI,[31],20 µM
same,TGI,[32],10.9 µM
same,TGI,[33],5.74 µM
same,TGI,[34],11.7 µM
same,TGI,[35],58.6 µM
same,TGI,[36],14.8 µM
same,TGI,[37],9.13 µM
same,TGI,[38],27.2 µM
same,IC50,[39],0.155 µM
same,CC50,[40],> 100 µM
same,CC50,[41],> 100 µM
same,CC50,[42],> 100 µM
same,CC50,[43],> 100 µM
same,CC50,[44],8.71 µM
same,CC50,[45],> 100 µM
same,CC50,[46],> 100 µM
same,CC50,[47],> 100 µM
same,CC50,[48],62.5 µM
same,CC50,[49],70.2 µM
same,CC50,[50],59.8 µM
same,CC50,[51],> 100 µM
same,CC50,[52],> 100 µM
same,CC50,[53],> 100 µM
same,CC50,[54],> 100 µM
same,CC50,[55],> 100 µM
same,CC50,[56],> 100 µM
same,CC50,[57],> 100 µM
same,CC50,[58],> 100 µM
same,CC50,[59],> 100 µM
same,CC50,[60],> 100 µM
same,CC50,[61],99.3 µM
